Source: patent publication US20220281848A1, “PYRAZOLE-SUBSTITUTED PYRROLIDINONES AS HERBICIDES” (FMC Corporation, priority 2019, published 2022)

System: plants
Assay: Test D pre-emergence, other plants of Tables D1 and D3
Type: in vivo
Conditions: preemergent, 20 DAA
Method in brief: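 Seeds treated with herbicide safener; sown in soil; glasshouse, 16 h light, 65% humidity. Sprayed day 1 (pre) or ~day 12 (post). Spray in 0.2% v/v adjuvant. Scored 0–100 damage: 20 DAA pre, 15 d post.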

CN1CC(c2cc(C(F)(F)F)n(C)n2)C(C(=O)Nc2ccc(F)nc2F)C1=O (racemic) [Compound 22]
damage to plant (100=total damage to plant; 0=no damage to plant), ABUTH (rate 15): 0
damage to plant (100=total damage to plant; 0=no damage to plant), ABUTH (rate 30): 0
damage to plant (100=total damage to plant; 0=no damage to plant), ABUTH (rate 60): 0
damage to plant (100=total damage to plant; 0=no damage to plant), ABUTH (rate 130): 0
damage to plant (100=total damage to plant; 0=no damage to plant), ABUTH (rate 250): 0
damage to plant (100=total damage to plant; 0=no damage to plant), ABUTH (rate 500): 0
damage to plant (100=total damage to plant; 0=no damage to plant), AMARE (rate 15): 0
damage to plant (100=total damage to plant; 0=no damage to plant), AMARE (rate 30): 0
damage to plant (100=total damage to plant; 0=no damage to plant), AMARE (rate 60): 0
damage to plant (100=total damage to plant; 0=no damage to plant), AMARE (rate 130): 0
damage to plant (100=total damage to plant; 0=no damage to plant), AMARE (rate 250): 0
damage to plant (100=total damage to plant; 0=no damage to plant), AMARE (rate 500): 0
damage to plant (100=total damage to plant; 0=no damage to plant), BIDPI (rate 15): 0
damage to plant (100=total damage to plant; 0=no damage to plant), BIDPI (rate 30): 0
damage to plant (100=total damage to plant; 0=no damage to plant), BIDPI (rate 60): 0
damage to plant (100=total damage to plant; 0=no damage to plant), BIDPI (rate 130): 0
damage to plant (100=total damage to plant; 0=no damage to plant), BIDPI (rate 250): 0
damage to plant (100=total damage to plant; 0=no damage to plant), BIDPI (rate 500): 0
damage to plant (100=total damage to plant; 0=no damage to plant), BRAPL (rate 15): 0
damage to plant (100=total damage to plant; 0=no damage to plant), BRAPL (rate 30): 20
damage to plant (100=total damage to plant; 0=no damage to plant), BRAPL (rate 60): 70
damage to plant (100=total damage to plant; 0=no damage to plant), BRAPL (rate 130): 80
damage to plant (100=total damage to plant; 0=no damage to plant), BRAPL (rate 250): 90
damage to plant (100=total damage to plant; 0=no damage to plant), BRAPL (rate 500): 90
damage to plant (100=total damage to plant; 0=no damage to plant), CYPES (rate 15): 0
damage to plant (100=total damage to plant; 0=no damage to plant), CYPES (rate 30): 0
damage to plant (100=total damage to plant; 0=no damage to plant), CYPES (rate 60): 0
damage to plant (100=total damage to plant; 0=no damage to plant), CYPES (rate 130): 0
damage to plant (100=total damage to plant; 0=no damage to plant), CYPES (rate 250): 0
damage to plant (100=total damage to plant; 0=no damage to plant), CYPES (rate 500): 0
damage to plant (100=total damage to plant; 0=no damage to plant), DIGSA (rate 15): 0
damage to plant (100=total damage to plant; 0=no damage to plant), DIGSA (rate 30): 20
damage to plant (100=total damage to plant; 0=no damage to plant), DIGSA (rate 60): 80
damage to plant (100=total damage to plant; 0=no damage to plant), DIGSA (rate 130): 80
damage to plant (100=total damage to plant; 0=no damage to plant), DIGSA (rate 250): 100
damage to plant (100=total damage to plant; 0=no damage to plant), DIGSA (rate 500): 100
damage to plant (100=total damage to plant; 0=no damage to plant), ECHCG (rate 15): 0
damage to plant (100=total damage to plant; 0=no damage to plant), ECHCG (rate 30): 0
damage to plant (100=total damage to plant; 0=no damage to plant), ECHCG (rate 60): 60
damage to plant (100=total damage to plant; 0=no damage to plant), ECHCG (rate 130): 80
damage to plant (100=total damage to plant; 0=no damage to plant), ECHCG (rate 250): 90
damage to plant (100=total damage to plant; 0=no damage to plant), ECHCG (rate 500): 100
damage to plant (100=total damage to plant; 0=no damage to plant), ELEIN (rate 15): 0
damage to plant (100=total damage to plant; 0=no damage to plant), ELEIN (rate 30): 0
damage to plant (100=total damage to plant; 0=no damage to plant), ELEIN (rate 60): 0
damage to plant (100=total damage to plant; 0=no damage to plant), ELEIN (rate 130): 0
damage to plant (100=total damage to plant; 0=no damage to plant), ELEIN (rate 250): 0
damage to plant (100=total damage to plant; 0=no damage to plant), ELEIN (rate 500): 0
damage to plant (100=total damage to plant; 0=no damage to plant), EPHHL (rate 15): 0
damage to plant (100=total damage to plant; 0=no damage to plant), EPHHL (rate 30): 0
damage to plant (100=total damage to plant; 0=no damage to plant), EPHHL (rate 60): 0
damage to plant (100=total damage to plant; 0=no damage to plant), EPHHL (rate 130): 0
damage to plant (100=total damage to plant; 0=no damage to plant), EPHHL (rate 250): 0
damage to plant (100=total damage to plant; 0=no damage to plant), EPHHL (rate 500): 0
damage to plant (100=total damage to plant; 0=no damage to plant), GLXMA (rate 15): 0
damage to plant (100=total damage to plant; 0=no damage to plant), GLXMA (rate 30): 0
damage to plant (100=total damage to plant; 0=no damage to plant), GLXMA (rate 60): 0
damage to plant (100=total damage to plant; 0=no damage to plant), GLXMA (rate 130): 0
damage to plant (100=total damage to plant; 0=no damage to plant), GLXMA (rate 250): 0
damage to plant (100=total damage to plant; 0=no damage to plant), GLXMA (rate 500): 0
damage to plant (100=total damage to plant; 0=no damage to plant), IPOHE (rate 15): 0
damage to plant (100=total damage to plant; 0=no damage to plant), IPOHE (rate 30): 0
damage to plant (100=total damage to plant; 0=no damage to plant), IPOHE (rate 60): 0
damage to plant (100=total damage to plant; 0=no damage to plant), IPOHE (rate 130): 0
damage to plant (100=total damage to plant; 0=no damage to plant), IPOHE (rate 250): 0
damage to plant (100=total damage to plant; 0=no damage to plant), IPOHE (rate 500): 0
damage to plant (100=total damage to plant; 0=no damage to plant), ORYSA (rate 15): 0
damage to plant (100=total damage to plant; 0=no damage to plant), ORYSA (rate 30): 0
damage to plant (100=total damage to plant; 0=no damage to plant), ORYSA (rate 60): 0
damage to plant (100=total damage to plant; 0=no damage to plant), ORYSA (rate 130): 0
damage to plant (100=total damage to plant; 0=no damage to plant), ORYSA (rate 250): 0
damage to plant (100=total damage to plant; 0=no damage to plant), ORYSA (rate 500): 0
damage to plant (100=total damage to plant; 0=no damage to plant), PANMI (rate 15): 0
damage to plant (100=total damage to plant; 0=no damage to plant), PANMI (rate 30): 0
damage to plant (100=total damage to plant; 0=no damage to plant), PANMI (rate 60): 0
damage to plant (100=total damage to plant; 0=no damage to plant), PANMI (rate 130): 0
damage to plant (100=total damage to plant; 0=no damage to plant), PANMI (rate 250): 0
damage to plant (100=total damage to plant; 0=no damage to plant), PANMI (rate 500): 0
damage to plant (100=total damage to plant; 0=no damage to plant), SETFA (rate 15): 0
damage to plant (100=total damage to plant; 0=no damage to plant), SETFA (rate 30): 0
damage to plant (100=total damage to plant; 0=no damage to plant), SETFA (rate 60): 0
damage to plant (100=total damage to plant; 0=no damage to plant), SETFA (rate 130): 30
damage to plant (100=total damage to plant; 0=no damage to plant), SETFA (rate 250): 60
damage to plant (100=total damage to plant; 0=no damage to plant), SETFA (rate 500): 90
damage to plant (100=total damage to plant; 0=no damage to plant), SORVU (rate 15): 0
damage to plant (100=total damage to plant; 0=no damage to plant), SORVU (rate 30): 0
damage to plant (100=total damage to plant; 0=no damage to plant), SORVU (rate 60): 0
damage to plant (100=total damage to plant; 0=no damage to plant), SORVU (rate 130): 0
damage to plant (100=total damage to plant; 0=no damage to plant), SORVU (rate 250): 0
damage to plant (100=total damage to plant; 0=no damage to plant), SORVU (rate 500): 0
